Data on two sequences can be found in article PMC5406018, “TCR stimulation strength is inversely associated with establishment of functional brain-resident memory CD8 T cells during persistent viral infection” (PLoS Pathogens, 2017).

The target in this experiment is T1, MHC-I D^b (Mus musculus, UniProt P01899).
T1 construct: endogenous in cells; host or cells: RMA/S cells
T1 sequence (P01899 25-362): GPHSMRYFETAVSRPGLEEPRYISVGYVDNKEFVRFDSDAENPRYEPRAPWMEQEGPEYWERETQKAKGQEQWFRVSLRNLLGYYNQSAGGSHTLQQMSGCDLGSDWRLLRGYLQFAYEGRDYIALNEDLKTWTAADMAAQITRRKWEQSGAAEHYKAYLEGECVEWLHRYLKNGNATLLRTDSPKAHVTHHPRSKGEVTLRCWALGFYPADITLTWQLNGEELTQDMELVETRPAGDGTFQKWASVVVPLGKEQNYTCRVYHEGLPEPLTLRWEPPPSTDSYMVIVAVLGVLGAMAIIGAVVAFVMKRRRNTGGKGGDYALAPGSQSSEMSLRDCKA
T1 sequence (P01887 21-119 partner): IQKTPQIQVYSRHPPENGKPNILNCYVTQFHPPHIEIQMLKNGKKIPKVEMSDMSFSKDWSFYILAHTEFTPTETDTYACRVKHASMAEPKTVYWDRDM
In words: RMA/S MHC-I stabilization assay. The conditions noted are these: RMA/S cells cultured overnight at 26°C, peptide 1 h at RT then 2 h at 37°C; anti-D^b gMFI, percent of maximum; unit inferred; read-out: MHC-I D^b EC50 (MHC-I binding and stabilization). On the procedure: Fig 1 Characterizing the T cell response to analogues of a subdominant CD8 T cell epitope. (A) RMA/S cells were cultured overnight at 26°C. Cells were incubated with the indicated dose of peptide for 1 h at RT followed by incubation at 37C for 2 h. […] (B) RMA/S cells were cultured overnight at […] in 100 μM of peptide. Cells were then resuspended in fresh media, incubated at 37C, and sampled hourly for 4 h. […] Nuclear Nur77 (C) and intracellular IFNγ expression (D) shown. […] All data plotted as percent of maximal expression ± SD. […]
For MHC-I stabilization assays, RMA/S cells were cultured overnight at 26°C, resuspended in RPMI containing 10% FBS (10% RPMI) and peptides of different concentrations, then incubated for 1 h at room temperature followed by 2 h at 37°C. […] Each hour for 4 h an aliquot of cells was stained for 30 mins at 4°C with phycoerythrin-conjugated anti-D^b (clone 28-14-8; eBioscience), acquired on a BD FACSCanto10 instrument, and the geometric mean fluorescence intensity (gMFI) determined using FlowJo Software (Tree Star). The percent maximum gMFI was calculated as (gMFI^peptide-gMFI^no peptide)/(gMFI^max- gMFI^no peptide) x 100. EC50 and T1/2 were calculated using Prism software (GraphPad, La Jolla CA).

No end group written: not given here.

In the case of MGVANLDNL [LT638], the EC50 worked out at 259 nM.
The value for QGINNLDNL [TagV] was 175 nM.
